In patent US11931366B2, “Compositions and methods of use thereof for treatment of proteinopathies” (priority 2018, dated 2024):
Entries after “also recorded” stand apart in the source; their conditions may differ. Read-outs that look alike come from different tables or passages of the source.

Key:
[1] = system: transgenic C. elegans expressing human mutant alpha-1-antitrypsin gene fused to GFP; experiment: High-throughput phenotypic drug screen and dose response in the C. elegans model of ATD (mutant AT accumulation); format: in vivo; conditions: for reduction of mutant AT accumulation: 8-point dose response curves, FIG. 4B, 5, 11; for hit in high-throughput screening campaign: C. elegans model of ATD, FIG. 4A
[2] = system: mutant AT protein accumulation in liver; format: in vivo, mouse; conditions: vs control (CTR)
[3] = system: autophagy pathway (LC3, p62); experiment: Autophagy markers (LC3-II/I, p62) following fluphenazine treatment; format: in vivo; conditions: for autophagic flux: liver
[4] = following fluphenazine treatment

SMILES | reduction of mutant AT accumulation [1] | hit in high-throughput screening campaign [1] | other results
CSc1ccc2c(c1)N(CCC1CCCCN1C)c1ccccc1S2 (stereo not drawn) [thioridazine] | reduce mutant AT accumulation in a dose-dependent manner |  | 
CN1CCN(CCCN2c3ccccc3Sc3ccc(C(F)(F)F)cc32)CC1 [trifluoperazine] | reduce mutant AT accumulation in a dose-dependent manner | hit compounds | 
OCCN1CCN(CCCN2c3ccccc3Sc3ccc(C(F)(F)F)cc32)CC1 [fluphenazine] | dose-dependent reduction of mutant AT; also recorded: reduce mutant AT accumulation in a dose-dependent manner | hit compounds | Sirius red staining (collagen deposition, liver fibrosis) ([2]; mouse liver sections): significantly reduced; accumulation of mutant AT protein (purple dots) in liver sections ([2]; transgenic mouse model of ATD): significantly reduced accumulation of mutant AT protein; percent area of purple dots (quantification of AT accumulations) ([2]; transgenic mouse model of ATD): significantly reduced; accumulation of mutant AT protein (purple dots) in liver sections ([2]; transgenic mouse model of ATD, listed as Fluphenazine): reduces mutant AT accumulation; reduction of mutant AT accumulation ([1]; listed as Fluphenazine): reduce misfolded AT protein accumulation in a dose and time-dependent manner; LC3-II/I ratio [3, 4]: increase; p62 [3, 4]: reduction; autophagic flux [3]: enhancing autophagic flux; autophagic flux ([3]; listed as Fluphenazine): enhances autophagic flux
CCSc1ccc2c(c1)N(CCCN1CCN(C)CC1)c1ccccc1S2 [thiethylperazine] | reduce mutant AT accumulation in a dose-dependent manner |  | 
OC(CNCc1ccc(Cl)cc1)CSc1ccccc1 (stereo not drawn) [RDR 03172] | reduce mutant AT protein accumulation; also recorded: reducing AT accumulations in a dose-dependent manner |  | 
OCCN1CCN(CCCN2c3ccccc3Sc3ccc(Cl)cc32)CC1 [perphenazine] | reduce mutant AT accumulation in a dose-dependent manner | hit compounds | 
CN1CCN(CCCN2c3ccccc3Sc3ccc(Cl)cc32)CC1 [prochlorperazine] | reduce mutant AT accumulation in a dose-dependent manner | hit compounds | 
FC(F)(F)c1ccc(SCCCN2CCN(c3cccc(Cl)c3)CC2)nc1 [AW00794, Piperazine, 1-(3-chlorophenyl)-4-[3-[[5-(trifluoromethyl)-2-pyridinyl]thio]propyl]-] | reduce mutant AT protein accumulation; also recorded: reduces AT accumulation |  | 
